1 compound from patent US11291719B2, “Methods and compositions for modulating Akt3” (Augusta University Research Institute, Inc., priority 2016, dated 2022) can be followed below.

One data set has as its system human iTregs. In words: Induction and viability of human iTregs. The format is cell-based. The text has this: FIG. 11A is a bar graph showing the percent of live human iTregs in cells treated with various concentrations of mJJ64A. The X-axis represents treatment group and the Y-axis represents percent of live cells. FIG. 11B is a bar graph showing the percent of FoxP3^+CD4^+ cells in human iTregs treated with various concentrations of mJJ64A. The X-axis represents treatment group and the Y-axis represents percent of FoxP3^+CD4^+ cells. FIG. 11C is a bar graph showing the percent of TGFβ^+ expressing cells in human iTregs treated with various concentrations of mJJ64A. The X-axis represents treatment group and the Y-axis represents percent of TGFβ^+ expressing cells.

The target in another data set is T1, Akt3 (Homo sapiens, UniProt Q9Y243).
T1 construct: endogenous in cells
Description: Western blot of Akt3 in Tconv cells during iTreg induction. The format is cell-based. The settings on record: TGF-β induced. The text has this:
FIG. 12 is a western blot showing the expression of FoxP3, pAkt3, Akt3, pAkt1, and Akt1 in activated Tconv cells induced with TGF-β and treated with various concentrations of mJJ64A.
(In western blotting, separated proteins are transferred to a membrane and probed.)

The subject of the next data set is iTregs. In words: Proliferation of activated iTregs. The format is cell-based. The settings on record: TGF-β induced. From the text: FIGS. 13A-13H show histograms representing proliferation of activated iTregs induced with TGF-β and treated with various concentrations of mJJ64A. FIG. 13I is a bar graph showing percent proliferation of iTregs treated with various concentrations of mJJ64A. The X-axis represents concentration of mJJ64A. The Y-axis represents percent proliferation. FIG. 13J is a bar graph showing the percent of live cells in iTregs treated with various concentrations of mJJ64A. The X axis represents treatment and the Y axis represents percentage of live cells.

A further data set has as its system nTregs. In words: Proliferation and viability of activated nTregs. The format is cell-based. From the text:
FIGS. 14A-14H is a set of histograms showing proliferation of activated nTregs treated with various concentrations of mJJ64A. FIG. […] is a bar graph showing percent proliferation of nTregs treated with various concentrations of mJJ64A. The X-axis represents treatment and the Y-axis represents percent proliferation. FIG. 13J is a bar graph showing the percent of live cells in nTregs treated with various concentrations of mJJ64A. The X-axis represents treatment and the Y-axis represents percentage of live cells.
(§1) FIGS. 16A-16L is a set of histograms showing the suppressive function of untreated and mJJ64A treated nTregs. The ratio of nTreg to Tconv cells is 0:1, 0.5:1, 1:1, 2:1, and 3:1.

Data set [1] relates to non-Treg CD4 and CD8 T cells. In words: Proliferation of non-Treg CD4 and CD8 T cells. The format is cell-based. Particulars: data not shown.
The next data set has as its system mouse iTreg cells. Description: Suppressive function of mouse iTregs in vitro. The format is cell-based. The settings on record: iTreg to Tconv ratios 0:1 to 2:1. From the text:
FIGS. 15A-15J is a set of histograms showing the suppressive function of mouse iTregs in untreated and mJJ64A treated iTregs. The ratio of iTreg to Tconv cells was 0:1, 0.5:1, 1:1, and 2:1.

The subject of a further data set is mouse nTregs cells. Description: Suppressive function of mouse nTregs in vitro. The format is cell-based. Particulars: nTreg to Tconv ratios 0:1 to 3:1.
From the text: as §1

Data set [2] deals with Tregs, CD8+ and FoxP3NEG CD4 T cells. In words: T cell populations in tumors and spleens of TC-1 mice. The format is in vivo, mouse. From the text: FIG. 19A is a bar graph representing the number of CD8^+ cells per 10^6 live cells in tumors from untreated and mJJ64A treated mice. FIG. 19B is a bar graph representing the number of CD4^+ cells per 10^6 live cells in tumors from untreated and mJJ64A treated mice. FIG. 19C is a bar graph representing the number of FoxP3^+ cells per 10^6 CD4^+ cells in tumors from untreated and mJJ64A treated mice. FIG. 19D is a bar graph representing the number of CD8^+, FoxP3^NEG CD4^+, and Treg cells per 10^6 live cells in the spleen of untreated or mJJ64A treated tumor-bearing mice. FIG. 19E is a bar graph representing the number of CD8^+, FoxP3^NEG CD4^+, and Treg cells per 10^6 live cells in the spleen of untreated or mJJ64A treated tumor-free mice.

For data set [3], the system named is Tregs. Description: Percent of Tregs in Rag-/- mice. The format is in vivo, mouse. The settings on record: compared to untreated. The text has this: FIG. 22A is a bar graph showing the number of CD4^+ T cells per 10^6 live cells in the spleen of WT, UT, iTreg, mJJ64A, and mJJ64A treated iTreg treated Rag^−/− mice. The X-axis represents treatment group and the Y-axis represents number of CD4^+ cells per 10^6 live cells. FIG. 22B is a bar graph showing the percent of FoxP3^+ cells per CD4^+ T cells in the spleen of WT, UT, iTreg, mJJ64A, and mJJ64A treated iTreg treated Rag^−/− mice. The X-axis represents treatment group and the Y-axis represents number of FoxP3^+ cells per CD4^+ cells. FIG. 22C is a bar graph showing the percent of FoxP3^− cells per CD4^+ T cells in the spleen of WT, UT, iTreg, mJJ64A, and mJJ64A treated iTreg treated Rag^−/− mice. The X-axis represents treatment group and the Y-axis represents number of FoxP3^− cells per CD4^+ cells. FIG. 22D is a bar graph showing the number of CD4^+ T cells per 10^6 live cells in the lymph node of WT, UT, iTreg, mJJ64A, and mJJ64A treated iTreg treated Rag^−/− mice. The X-axis represents treatment group and the Y-axis represents number of CD4^+ cells per 10^6 live cells. FIG. 22E is a bar graph showing the percent of FoxP3^+ cells per CD4^+ T cells in the lymph node of WT, UT, iTreg, mJJ64A, and mJJ64A treated iTreg treated Rag^−/− mice. The X-axis represents treatment group and the Y-axis represents number of FoxP3^+ cells per CD4^+ cells. […]

Data set [4] concerns Tregs. Description: Percent of Tregs in EAE mice. The settings on record: compared to untreated. The format is in vivo, mouse. The text has this:
FIGS. 25A-251 are bar graphs showing the percent of FoxP3^+ cells per CD4^+ T cells, FoxP3^− cells per CD4^+ T cells, and ROR^+ cells per CD4^+ T cells in the spleen (FIG. 25A-25C), blood (FIG. 25D-25F), and brain (FIG. 25G-251) of UT, iTreg, mJJ64A-3, mJJ64A-6 and mJJ64A-10 treated EAE mice. The X-axis represents treatment group and the Y-axis represents number of FoxP3^+ cells, FoxP3^−, or ROR^+ cells per CD4^+ cells.

T1 sequence (Q9Y243 whole entry): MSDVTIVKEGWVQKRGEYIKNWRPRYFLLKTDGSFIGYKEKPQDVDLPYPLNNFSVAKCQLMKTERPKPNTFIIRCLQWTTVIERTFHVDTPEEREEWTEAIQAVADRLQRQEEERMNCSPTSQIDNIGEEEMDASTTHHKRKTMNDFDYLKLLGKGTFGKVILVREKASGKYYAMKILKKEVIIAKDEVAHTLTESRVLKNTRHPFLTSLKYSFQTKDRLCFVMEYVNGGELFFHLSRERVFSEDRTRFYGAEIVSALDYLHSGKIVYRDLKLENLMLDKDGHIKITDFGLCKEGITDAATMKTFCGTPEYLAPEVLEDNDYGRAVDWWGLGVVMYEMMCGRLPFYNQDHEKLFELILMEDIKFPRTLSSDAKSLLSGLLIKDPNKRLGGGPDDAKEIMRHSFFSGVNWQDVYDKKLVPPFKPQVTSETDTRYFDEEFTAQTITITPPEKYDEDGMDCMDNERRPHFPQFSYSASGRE

In the case of `N#Cc1ccc2nccc(Nc3ccc(C(=O)Nc4ccc(Nc5ccncc5)cc4)cc3)c2c1` [Compound 2], in the data set on human iTregs (percent FoxP3+CD4+ and TGFβ+ cells), the “induction of human iTregs” value was “induced”. For the same compound, the “cell viability of human iTregs” value in the data set on human iTregs (percent of live cells) is reported as “did not affect”. Further, the “expression of Akt3 in Tconv cells during iTreg induction” value at Akt3 was “increased”. In the data set on iTregs, the “proliferation of iTregs” value is “increased”. In addition, the “viability of nTregs” value in the data set with nTregs is reported as “without affecting”. For the same compound, the “proliferation of nTregs” value in the data set on nTregs (activated nTregs) is recorded as “increased”. In addition, the “proliferation of non-Treg CD4 and CD8 T cells” value in [1] is reported as “not”. Further, the “suppressive function of mouse iTreg cells in vitro” value in the data set on mouse iTreg cells is “increased”. In the data set with mouse nTregs cells, the “suppressive function of mouse nTregs cells in vitro” value is on record as “increased”. Besides, the “number of Tregs in the tumors and spleens” value in [2] (compared to untreated controls) is on record as “increased”. Moreover, in data set [2] (mouse, in vivo), the “tumor-infiltration of CD8+ and FoxP3NEG CD4 T cells” value was “not affected”. Moreover, the “percent of Tregs in the spleen and mesenteric lymph nodes” value with Tregs [3] is reported as “increased”. Moreover, in the data set on Tregs [4], the “percent of Tregs in the spleen, blood, and brain” value was “increased”.
